Assay results: patent publication US9708259B2 (Hoffmann-La Roche Inc., priority 2013, dated 2017)
Changes are numbered by the printed parent chain. Read-outs that look alike come from different tables or passages of the source.

Tests used:
ratM1 = molecular target: T1, ratM1 (Rattus norvegicus, UniProt P08482); experiment: M1 PAM assay (FLIPR intracellular calcium), rat M1; format: cell-based
T1 construct: expressed in transfected cells; host or cells: CHO cells (stated generally for the assay, not specifically for rat M1)
T1 sequence (P08482 1-460): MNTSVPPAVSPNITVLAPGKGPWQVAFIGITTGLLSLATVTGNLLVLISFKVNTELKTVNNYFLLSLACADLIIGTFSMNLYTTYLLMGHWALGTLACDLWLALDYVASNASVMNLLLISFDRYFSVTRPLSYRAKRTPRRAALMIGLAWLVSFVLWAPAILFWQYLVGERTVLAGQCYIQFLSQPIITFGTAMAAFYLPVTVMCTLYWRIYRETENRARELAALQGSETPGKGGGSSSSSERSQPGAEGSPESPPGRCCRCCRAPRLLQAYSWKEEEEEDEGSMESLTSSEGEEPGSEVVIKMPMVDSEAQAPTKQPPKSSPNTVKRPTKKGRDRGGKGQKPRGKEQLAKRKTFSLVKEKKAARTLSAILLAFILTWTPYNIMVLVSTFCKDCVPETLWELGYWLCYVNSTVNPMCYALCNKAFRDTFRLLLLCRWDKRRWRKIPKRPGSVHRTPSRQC

human M1 = molecular target: T2, human M1 (Homo sapiens, UniProt P11229); experiment: M1 PAM assay (FLIPR intracellular calcium), human M1; format: cell-based
T2 construct: expressed in transfected cells; host or cells: CHO cells
T2 sequence (P11229 1-460): T1 sequence (P08482 1-460) with V5A, S254T, S309P, K320R, G337A, V413I
In short: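 CHO cells expressing M1, Fluo-4AM-loaded, in HEPES/probenecid HBSS pH 7.4, 1% DMSO final. Compounds pre-incubated 2 min for agonist activity versus 30 nM acetylcholine control. For PAM activity, acetylcholine EC20 added after the 2 min pre-incubation, then 2 min more before FLIPR intracellular Ca2+ read.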

[1] = rat M1, FLIPR Ca2+, second value of the cell, read-out: ratM1 EC50
[2] = CHO human M1 cells, FLIPR Ca2+, with EC20 of acetylcholine, first value of the cell, read-out: hM1 EC50

Row | SMILES | EC50 (ratM1; [1]) [nM] | EC50 (human M1; [2]) [nM] | EC50 (ratM1) [nM] | EC50 (human M1) [nM]
1 | CNC(=O)c1ccc(Cn2cc(C(=O)NC3CCCCC3F)c3c(F)cccc32)cc1F (stereo not drawn) [Example 129, 4-fluoro-1-(3-fluoro-4-(methylcarbamoyl)benzyl)-N-(2-fluorocyclohexyl)-1H-indole-3-carboxamide] | 66 | 27 | – | –
2 | CNC(=O)c1ccc(Cn2cc(C(=O)NC3CCS(=O)(=O)CC3)c3c(F)cccc32)cc1 [Example 125, N-(1,1-dioxothian-4-yl)-4-fluoro-1-[[4-(methylcarbamoyl)phenyl]methyl]indole-3-carboxamide] | 623 | 166 | – | –
3 | COc1ccc(F)c2c(C(=O)N[C@H]3CCOC[C@@H]3O)cn(Cc3ccc(-c4cnn(C)c4)cc3F)c12 [Example 153, 4-fluoro-1-(2-fluoro-4-(1-methyl-1H-pyrazol-4-yl)benzyl)-N-((3R,4S)-3-hydroxytetrahydro-2H-pyran-4-yl)-7-methoxy-1H-indole-3-carboxamide] | 56 | 56 | – | –
4 | Cn1cc(-c2ccc(Cn3nc(C(=O)N[C@H]4CCCC[C@@H]4O)c4c(F)ccc(F)c43)c(F)c2)cn1 [Example 72, 4,7-difluoro-1-(2-fluoro-4-(1-methyl-1H-pyrazol-4-yl)benzyl)-N-((1S,2S)-2-hydroxycyclohexyl)-1H-indazole-3-carboxamide] | 133 | 42.8 | – | –
5 | Cn1cc(-c2ccc(Cn3cc(C(=O)NCC4(O)CC4)c4c(F)cccc43)c(F)c2)cn1 [Example 97, 4-fluoro-1-(2-fluoro-4-(1-methyl-1H-pyrazol-4-yl)benzyl)-N-((1-hydroxycyclopropyl)methyl)-1H-indole-3-carboxamide] | 1890 | 465 | – | –
6 | NC(=O)Cc1ccc(Cn2cc(C(=O)N[C@H]3CCCC[C@@H]3O)c3c(F)cccc32)cc1 [Example 80, 1-(4-(2-amino-2-oxoethyl)benzyl)-4-fluoro-N-((1S,2S)-2-hydroxycyclohexyl)-1H-indole-3-carboxamide] | 263 | 110 | – | –
7 | Cn1cc(-c2ccc(Cn3cc(C(=O)N[C@H]4CCCC[C@@H]4O)c4c(F)cccc43)cn2)cn1 [Example 30, 4-fluoro-N-((1S,2S)-2-hydroxycyclohexyl)-1-((6-(1-methyl-1H-pyrazol-4-yl)pyridine-3-yl)methyl)-1H-indole-3-carboxamide] | 14.1 | 13.2 | – | –
8 | O=C(N[C@H]1CCCC[C@@H]1O)c1cn(Cc2ccc(-c3ccno3)cc2)c2cccc(F)c12 [Example 138, 4-fluoro-N-((1S,2S)-2-hydroxycyclohexyl)-1-(4-(isoxazol-5-yl)benzyl)-1H-indole-3-carboxamide] | 38 | 16 | – | –
9 | Cn1cc(-c2ccc(Cn3cc(C(=O)NCC4CCO4)c4c(F)cccc43)cc2)cn1 (stereo not drawn) [Example 14, 4-fluoro-1-(4-(1-methyl-1H-pyrazol-4-yl)benzyl)-N-(oxetan-2-ylmethyl)-1H-indole-3-carboxamide] | 198 | 121 | – | –
10 | N#Cc1ccc(Cn2cc(C(=O)N[C@H]3CCOC[C@@H]3O)c3c(F)cccc32)cc1 (single isomer, unassigned) [Example 54, 1-(4-cyanobenzyl)-4-fluoro-N-((3R,4S) or (3S,4R)-3-hydroxytetrahydro-2H-pyran-4-yl)-1H-indole-3-carboxamide] | – | – | 122 | 69.6
11 | Cn1cc(-c2ccc(Cn3cc(CC(=O)N[C@H]4CCCC[C@@H]4O)c4c(F)cccc43)c(F)c2)cn1 [Example 93, 2-(4-fluoro-1-(2-fluoro-4-(1-methyl-1H-pyrazol-4-yl)benzyl)-1H-indol-3-yl)-N-((1S,2S)-2-hydroxycyclohexyl)acetamide] | 1880 | 191 | – | –
12 | CCc1ccc(F)c2c(C(=O)NC3CCOCC3)cn(Cc3ccc(-c4cnn(C)c4)cc3)c12 [Example 108, 7-ethyl-4-fluoro-1-(4-(1-methyl-1H-pyrazol-4-yl)benzyl)-N-(tetrahydro-2H-pyran-4-yl)-1H-indole-3-carboxamide] | 952 | 414 | – | –
